Measurements from ChEMBL document CHEMBL1137163, “Structure-activity relationships of potent and selective factor Xa inhibitors: benzimidazole derivatives with the side chain oriented to the prime site of factor Xa” (Bioorg Med Chem Lett, 2004).

Tests used:
Coagulation factor X = Coagulation factor X (Homo sapiens, UniProt P00742); assay: Inhibitory concentration against human Coagulation factor X
Prothrombin = Prothrombin (Homo sapiens, UniProt P00734); assay: Inhibitory concentration against Coagulation factor II
Mus musculus = species on record: Mus musculus; assay: Concentration required to produce 50% inhibition of tissue factor-induced platelet aggregation in disseminated intravascular coagulation (DIC) mouse model; type: functional

Coagulation factor X, sequence (P00742 41-179 limits assumed): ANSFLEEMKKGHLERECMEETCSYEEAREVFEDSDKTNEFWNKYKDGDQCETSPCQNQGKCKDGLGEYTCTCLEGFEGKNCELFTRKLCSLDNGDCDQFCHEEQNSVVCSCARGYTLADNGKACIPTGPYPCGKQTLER
Coagulation factor X, sequence (P00742 235-488 limits assumed): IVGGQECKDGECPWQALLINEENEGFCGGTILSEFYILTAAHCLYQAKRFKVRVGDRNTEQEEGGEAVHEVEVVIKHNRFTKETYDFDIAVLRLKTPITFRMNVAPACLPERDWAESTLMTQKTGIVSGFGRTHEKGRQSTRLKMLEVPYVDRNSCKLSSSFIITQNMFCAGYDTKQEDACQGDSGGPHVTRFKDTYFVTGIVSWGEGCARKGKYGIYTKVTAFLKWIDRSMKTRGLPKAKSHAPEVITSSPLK

Compound | IC50 (Coagulation factor X) [nM] | IC50 (Prothrombin) [nM] | ED50 (Mus musculus) [mg/kg]
CC(=N)N1CCC(Oc2ccc(N(Cc3nc4cc(C(=N)N)ccc4n3CC(=O)NC3CCCCC3)C(=O)c3ccc(C(=O)O)cc3)cc2)CC1.Cl.Cl | – | – | 0.2
N=C(N)c1ccc(Oc2ccc(N(Cc3nc4cc(C(=N)N)ccc4n3CC(=O)NC3CCCCC3)C(=O)c3ccc(C(=O)O)cc3)cc2)cc1 | 2000 | > 10000 | –
CC(=N)N1CCC(Oc2ccc(OCc3nc4cc(C(=N)N)ccc4n3CC(=O)NCC3CCCCC3)cc2)CC1 | 300 | > 10000 | –
CC(=N)N1CCC(Oc2ccc(OCc3nc4cc(C(=N)N)ccc4n3CC(=O)Nc3ccccc3)cc2)CC1 | 100 | > 10000 | –
CC(=N)N1CC[C@H](Oc2ccc([C@H](Cc3ccc4ccc(C(=N)N)cc4c3)C(=O)O)cc2)C1.Cl [DX-9065A HYDROCHLORIDE HYDRATE] | – | – | 0.5
CC(=N)N1CCC(Oc2ccc(OCc3nc4cc(C(=N)N)ccc4n3CC(=O)NCc3ccccc3)cc2)CC1 | 100 | > 10000 | –
N=C(N)c1ccc2c(c1)nc(CN(C(=O)c1ccc(C(=O)O)cc1)c1ccc(OC3CCNC3)cc1)n2CC(=O)NC1CCCCC1 (centres undefined) | 300 | > 10000 | –
CC(=N)N1CCC(Oc2ccc(N(Cc3nc4cc(C(=N)N)ccc4n3CC(=O)Nc3ccc(Cl)c(Cl)c3)C(=O)c3ccc(C(=O)O)cc3)cc2)CC1.Cl.Cl | 200 | > 10000 | 0.7
CC(=N)N1CCC(Oc2ccc(OCc3nc4cc(C(=N)N)ccc4n3CC(=O)NCc3ccc(Cl)c(Cl)c3)cc2)CC1 | 30 | > 10000 | –
N=C(N)c1ccc2c(c1)nc(CN(C(=O)c1ccc(C(=O)O)cc1)c1ccc(OC3CCN(C(=N)NCc4ccccc4)CC3)cc1)n2CC(=O)NC1CCCCC1 | – | > 10000 | –
CC(=N)N1CCC(Oc2ccc(OCc3nc4cc(C(=N)N)ccc4n3CC(=O)N3CCCCC3)cc2)CC1 | 3000 | > 10000 | –
CC(=N)N1CCC(Oc2ccc(OCc3nc4cc(C(=N)N)ccc4n3CC(=O)Nc3ccc(Cl)c(Cl)c3)cc2)CC1 | 60 | > 10000 | –

Second part, led by results:

IC50 (Coagulation factor X) [nM] | IC50 (Prothrombin) [nM] | Compound | ED50 (Mus musculus) [mg/kg]
40 | > 10000 | CC(=N)N1CCC(Oc2ccc(OCc3nc4cc(C(=N)N)ccc4n3CC(=O)NC3CCCCC3)cc2)CC1 | –
600 | > 10000 | CC(=N)N1CC[C@H](Oc2ccc(CCc3cc4cc(C(=N)N)ccc4o3)cc2)C1 | –
200 | > 10000 | CC(=N)N1CCC(Oc2ccc(N(Cc3nc4cc(C(=N)N)ccc4n3CC(=O)NC(C)(C)c3ccccc3)C(=O)c3ccc(C(=O)O)cc3)cc2)CC1 | –
6 | > 10000 | CC(=N)N1CCC(Oc2ccc(N(Cc3nc4cc(C(=N)N)ccc4n3CC(=O)NCc3ccc(Cl)c(Cl)c3)C(=O)c3ccc(C(=O)O)cc3)cc2)CC1.Cl.Cl | 0.7
400 | > 10000 | CCn1c(COc2ccc(OC3CCN(C(C)=N)CC3)cc2)nc2cc(C(=N)N)ccc21 | –
200 | > 10000 | CC(=N)N1CCC(Oc2ccc(OCc3nc4cc(C(=N)N)ccc4n3CC(=O)NCCCc3ccccc3)cc2)CC1 | –
30 | > 10000 | CC(=N)N1CCC(Oc2ccc(OCc3nc4cc(C(=N)N)ccc4n3CC(=O)NC(C)c3ccccc3)cc2)CC1 (centres undefined) | –
100 | > 10000 | CC(=N)N1CCC(Oc2ccc(N(Cc3nc4cc(C(=N)N)ccc4n3CC(=O)NC3CCCCC3)C(=O)c3ccc(C(=O)O)cc3)cc2)C1 (centres undefined) | –
